Where “and” joins values, the source holds several entries; their conditions need not be identical. Equal values may be shown once. Inconclusive results and toxic doses are left out. Rule as the data show it: active = T/C of 150% or more; inactive = T/C below 125%.
Tested on: L1210 leukemia ip in BDF1 mice, survival T/C
Assay: NCI In Vivo Anticancer Drug Screen. Data for tumor model L1210 Leukemia (intraperitoneal) in B6D2F1 (BDF1) mice
Conditions: endpoint: mean survival time, higher = longer survival
Procedure, shortened: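 Read-out is survival time, reported as the treated-group measurement over the vehicle-control measurement.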

[1] = dose: 400.0 mg/kg/injection, schedule: Q01DX001 (ip), vehicle: other
[2] = dose: 100.0 mg/kg/injection, schedule: Q01DX001 (ip), vehicle: saline with Tween-80
[3] = dose: 100.0 mg/kg/injection, schedule: Q01DX009 (ip), vehicle: saline with Tween-80
[4] = dose: 100.0 mg/kg/injection, schedule: Q04DX003 (ip), vehicle: saline with Tween-80
[5] = dose: 200.0 mg/kg/injection, schedule: Q01DX001 (ip), vehicle: saline with Tween-80
[6] = dose: 200.0 mg/kg/injection, schedule: Q01DX009 (ip), vehicle: saline with Tween-80
[7] = dose: 200.0 mg/kg/injection, schedule: Q04DX003 (ip), vehicle: saline with Tween-80
[8] = dose: 400.0 mg/kg/injection, schedule: Q01DX001 (ip), vehicle: saline with Tween-80
[9] = dose: 400.0 mg/kg/injection, schedule: Q01DX009 (ip), vehicle: saline with Tween-80
[10] = dose: 400.0 mg/kg/injection, schedule: Q04DX003 (ip), vehicle: saline with Tween-80
[11] = dose: 12.5 mg/kg/injection, schedule: Q01DX009 (ip), vehicle: Klucel (hydroxypropylcellulose) (HPC)
[12] = dose: 25.0 mg/kg/injection, schedule: Q01DX009 (ip), vehicle: Klucel (hydroxypropylcellulose) (HPC)
[13] = dose: 50.0 mg/kg/injection, schedule: Q01DX009 (ip), vehicle: Klucel (hydroxypropylcellulose) (HPC)
[14] = dose: 100.0 mg/kg/injection, schedule: Q01DX009 (ip), vehicle: Klucel (hydroxypropylcellulose) (HPC)
[15] = dose: 100.0 mg/kg/injection, schedule: Q04DX003 (ip), vehicle: Klucel (hydroxypropylcellulose) (HPC)
[16] = dose: 200.0 mg/kg/injection, schedule: Q01DX009 (ip), vehicle: Klucel (hydroxypropylcellulose) (HPC)
[17] = dose: 200.0 mg/kg/injection, schedule: Q04DX003 (ip), vehicle: Klucel (hydroxypropylcellulose) (HPC)
[18] = dose: 400.0 mg/kg/injection, schedule: Q01DX009 (ip), vehicle: Klucel (hydroxypropylcellulose) (HPC)
[19] = dose: 400.0 mg/kg/injection, schedule: Q04DX003 (ip), vehicle: Klucel (hydroxypropylcellulose) (HPC)

Measured: T/C

Oc1ccccc1C=NCC[N-]CCN=Cc1ccccc1O.[Cu+]
inactive: dose: 1.56 mg/kg/injection, schedule: Q01DX009 (ip), vehicle: Klucel (hydroxypropylcellulose) (HPC) 91 % of control | dose: 1.56 mg/kg/injection, schedule: Q04DX003 (ip), vehicle: Klucel (hydroxypropylcellulose) (HPC) 95 % of control | dose: 3.13 mg/kg/injection, schedule: Q01DX009 (ip), vehicle: Klucel (hydroxypropylcellulose) (HPC) 94 % of control | dose: 3.13 mg/kg/injection, schedule: Q04DX003 (ip), vehicle: Klucel (hydroxypropylcellulose) (HPC) 93 % of control | dose: 6.25 mg/kg/injection, schedule: Q01DX009 (ip), vehicle: Klucel (hydroxypropylcellulose) (HPC) 94 % of control | dose: 6.25 mg/kg/injection, schedule: Q04DX003 (ip), vehicle: Klucel (hydroxypropylcellulose) (HPC) 97 % of control

ClC(c1ccccc1)(c1ccccc1)c1ccccc1
inactive: dose: 50.0 mg/kg/injection, schedule: Q01DX001 (ip), vehicle: other 96 % of control | dose: 100.0 mg/kg/injection, schedule: Q01DX001 (ip), vehicle: other 102 % of control | dose: 100.0 mg/kg/injection, schedule: Q01DX009 (ip), vehicle: saline 87 % of control | dose: 100.0 mg/kg/injection, schedule: Q04DX003 (ip), vehicle: saline 90 % of control | dose: 200.0 mg/kg/injection, schedule: Q01DX001 (ip), vehicle: other 106 % of control | dose: 200.0 mg/kg/injection, schedule: Q01DX009 (ip), vehicle: saline 94 % of control | dose: 200.0 mg/kg/injection, schedule: Q04DX003 (ip), vehicle: saline 93 % of control | [1] 100 % of control | dose: 400.0 mg/kg/injection, schedule: Q01DX009 (ip), vehicle: saline 90 % of control | dose: 400.0 mg/kg/injection, schedule: Q04DX003 (ip), vehicle: saline 88 % of control

COC(=O)c1ccccc1NC(=O)Nc1cc(Cl)ccc1C
inactive: [2] 87 % of control | [3] 91 % of control and 92 % of control | dose: 100.0 mg/kg/injection, schedule: Q04DX002 (ip), vehicle: saline with Tween-80 95 % of control and 88 % of control | [4] 101 % of control | [5] 90 % of control | [6] 93 % of control and 94 % of control | dose: 200.0 mg/kg/injection, schedule: Q04DX002 (ip), vehicle: saline with Tween-80 88 % of control and 91 % of control | [7] 92 % of control | [8] 88 % of control | [9] 94 % of control and 101 % of control | dose: 400.0 mg/kg/injection, schedule: Q04DX002 (ip), vehicle: saline with Tween-80 93 % of control and 91 % of control | [10] 90 % of control

c1cnc[c]([Hg][c]2cccnc2)c1
inactive: [11] 91 % of control | dose: 12.5 mg/kg/injection, schedule: Q04DX002 (ip), vehicle: Klucel (hydroxypropylcellulose) (HPC) 98 % of control | [12] 88 % of control | dose: 25.0 mg/kg/injection, schedule: Q04DX002 (ip), vehicle: Klucel (hydroxypropylcellulose) (HPC) 98 % of control | [13] 95 % of control | dose: 50.0 mg/kg/injection, schedule: Q04DX002 (ip), vehicle: Klucel (hydroxypropylcellulose) (HPC) 103 % of control

COc1ccc(-n2c(=O)c(N=Nc3ccc(Br)cc3)c(O)n(-c3ccccc3C)c2=S)cc1
inactive: dose: 75.0 mg/kg/injection, schedule: Q04DX003 (ip), vehicle: Klucel (hydroxypropylcellulose) (HPC) 98 % of control | dose: 150.0 mg/kg/injection, schedule: Q04DX003 (ip), vehicle: Klucel (hydroxypropylcellulose) (HPC) 104 % of control | dose: 300.0 mg/kg/injection, schedule: Q04DX003 (ip), vehicle: Klucel (hydroxypropylcellulose) (HPC) 107 % of control

CCN1C(=O)/C(=C\C=C2\SCCN2CI)OC1=S
inactive: dose: 177.6 mg/kg/injection, schedule: Q01DX001 (ip), vehicle: other 98 % of control and 89 % of control | dose: 266.8 mg/kg/injection, schedule: Q01DX001 (ip), vehicle: other 96 % of control | [1] 96 % of control and 89 % of control | dose: 600.0 mg/kg/injection, schedule: Q01DX001 (ip), vehicle: other 103 % of control and 87 % of control

CCCCCCCCCOc1ccc(C=Nc2ccc(CC)cc2)cc1
inactive: [11] 92 % of control | [12] 90 % of control | [13] 92 % of control

CSc1ccccc1C(=O)NNS(=O)(=O)c1ccc(C)cc1
inactive: [14] 101 % of control | [15] 95 % of control | [16] 103 % of control | [17] 97 % of control | [18] 95 % of control | [19] 97 % of control

O=[N+]([O-])c1cccc(SNc2cccc(Cl)c2)c1
inactive: [3] 98 % of control | [4] 93 % of control | [7] 95 % of control | [10] 90 % of control

O=C1C(C(Cl)c2ccccc2)SC(c2ccccc2)N1c1ccccc1 (stereo unspecified)
inactive: [14] 95 % of control | [15] 102 % of control | [16] 95 % of control | [17] 89 % of control | [18] 95 % of control | [19] 96 % of control

C=C(C)c1cc2ccccc2cc1O
inactive: [3] 98 % of control | [4] 90 % of control | [6] 100 % of control | [7] 94 % of control | [9] 98 % of control | [10] 92 % of control

CC1(C)CN(C(C)(C)C)CC(C)(C)C(O)C1=O (stereo unspecified)
inactive: [2] 96 % of control | [5] 91 % of control | [8] 93 % of control

CCCCC[n+]1cccc(C#N)c1
inactive: dose: 37.5 mg/kg/injection, schedule: Q04DX003 (ip), vehicle: saline 100 % of control | dose: 75.0 mg/kg/injection, schedule: Q01DX001 (ip), vehicle: saline 96 % of control | dose: 75.0 mg/kg/injection, schedule: Q04DX003 (ip), vehicle: saline 91 % of control | dose: 150.0 mg/kg/injection, schedule: Q01DX001 (ip), vehicle: saline 100 % of control | dose: 150.0 mg/kg/injection, schedule: Q04DX003 (ip), vehicle: saline 100 % of control

Cc1ccc(Nc2nnc(N=Nc3ccccc3)s2)cc1C
inactive: dose: 100.0 mg/kg/injection, schedule: Q01DX009 (ip), vehicle: other 101 % of control | dose: 200.0 mg/kg/injection, schedule: Q01DX009 (ip), vehicle: other 98 % of control | dose: 400.0 mg/kg/injection, schedule: Q01DX009 (ip), vehicle: other 98 % of control

N#Cc1ccccc1CCc1ccccc1
inactive: dose: 50.0 mg/kg/injection, schedule: Q01DX001 (ip), vehicle: saline 106 % of control | dose: 100.0 mg/kg/injection, schedule: Q01DX001 (ip), vehicle: saline 102 % of control | dose: 200.0 mg/kg/injection, schedule: Q01DX001 (ip), vehicle: saline 106 % of control | dose: 400.0 mg/kg/injection, schedule: Q01DX001 (ip), vehicle: saline 98 % of control
